Results as given in ChEMBL document CHEMBL1201862, “PubChem BioAssay data set” (2004).
Activity calls are given as the source filed them.

Assays:
[1] = NIH-3T3 fibroblast cytotoxicity, dose response, cytotoxicity control, cell-based, fluorescence, Alamar Blue, secondary assay (AID 2327); assay type: functional;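 also: NIH-3T3 mouse fibroblasts cultured with fluconazole at 8 µg/mL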
INS1 = test: INS-1E survival protection against cytokine death – cell-based, luminescence, retest, dose response (AID 449756); assay type: functional; settings: Rattus norvegicus;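 also: cell death triggered by IL-1 beta plus TNF-alpha plus IFN-gamma mixture; protective hits raise ATP signal compared with cytokine alone wells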
[2] = luciferase reporter signal suppression in cells – H4 neuroglioma cells, luminescence, dose response (AID 1990); assay type: functional, cell-based
[3] = DRD fibroblast viability loss – cell-based, non-viral oncogenic, luminescence, dose response (AID 1934); assay type: functional; settings: Homo sapiens
[4] = alpha-synuclein stem-loop luciferase translation blockers – H4 neuroglioma cells, luminescence, confirmation (AID 1988); assay type: functional, cell-based
[5] = viability loss in HEK293 cells – cell-based, plate reader, cherry-picked samples, cytotoxicity control, dose response (AID 743446); assay type: functional
HEK293 [6] = test: membrane integrity loss in HEK cells – cell-based, fluorescence, cytotoxicity control for IDE activator project, dose response (AID 588440); assay type: functional; settings: Homo sapiens;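 also: cytotoxicity by LDH release measuring loss of membrane integrity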
BJ [7] = test: BJ-TERT-LT-ST fibroblast viability loss – cell-based, RAS-independent, luminescence, dose response (AID 1935); assay type: functional; settings: Homo sapiens;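 also: BJ fibroblasts immortalized with TERT plus LT and ST oncogenes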
[8] = tested on: Streptococcus sp. 'group A'; test: Streptococcus pyogenes SK(-)GAS viability under kanamycin – luminescence, BacTiterGlo, confirmation, counter-screen for streptokinase expression inhibitor project, dose response (AID 1900); assay type: functional, organism-based
Streptococcus = test: GAS UMAA2166 growth inhibition – luminescence, BacTiterGlo, counter-screen for streptokinase expression inhibitor project, dose response (AID 1915); assay type: functional, organism-based;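 also: potency for reduction of bacterial viability or growth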
[9] = reduced cellular PGC1a acetyl-lysine signal – cell-based, cherry-picked samples, dose response (AID 720514); assay type: functional;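 also: potency may reflect raised or lowered acetylation signal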
[10] = A549 cell cytotoxicity, dose response, cytotoxicity control, plate reader, cherry-pick, antagonist series (AID 743412); assay type: functional, cell-based
[11] = fluconazole-exposed Candida albicans growth modulators – fluorescence, retest, confirmation (AID 2467); assay type: functional, cell-based
[12] = blockers of bursicon-stimulated LGR2 cAMP reporter – cell-based, HEK293, CRE-luciferase reporter, cherry pick, set 2, dose response (AID 743343); assay type: functional;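 also: transfected cells were stimulated with diluted bursicon conditioned medium after compound addition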
[13] = toxicity toward HepG2 liver cells – cell-based, plate reader, cherry-pick, antagonist series, cytotoxicity control, dose response (AID 743416); assay type: functional
[14] = HEK-293T viability loss after treatment – luminescence, T-cell screen hits, cytotoxicity control for TCR NF-kB inhibitor project, dose response (AID 489026); assay type: functional, cell-based;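 also: cells exposed to compound about 14 hours before the viability readout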
BJ [15] = test: BJ-TERT fibroblast viability loss – cell-based, RAS-independent, luminescence, dose response (AID 1933); assay type: functional; settings: Homo sapiens
HEK293 [16] = test: optical interference in Abeta FP readout, dose response, artefact control for IDE activator project, biochemical, fluorescence polarization (AID 588442); assay type: functional, cell-based; settings: Homo sapiens
[17] = Luminescence Cell-Based Dose Response HTS to Identify Inhibitors of 5'UTR Stem-Loop Driven Prion Protein mRNA Translation in H4 Neuroglioblastoma Cells. [Related pubchem assays: 1827 (Project Summary), 1813 (Primary HTS)]; assay type: functional
BJ [18] = test: cells; assay type: functional, cell-based; settings: Homo sapiens
[19] = target: T1, Ubiquitin-conjugating enzyme E2 N (Homo sapiens, UniProt P61088); assay type: functional;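 also: Dose-response confirmation in a TR-FRET assay detecting UBC13-driven polyubiquitin chain formation, inhibition measured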
T1 sequence (P61088 whole entry): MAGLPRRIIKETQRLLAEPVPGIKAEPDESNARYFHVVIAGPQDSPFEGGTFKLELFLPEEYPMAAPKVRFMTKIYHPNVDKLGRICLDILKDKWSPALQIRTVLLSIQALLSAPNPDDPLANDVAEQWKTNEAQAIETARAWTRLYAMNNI

Paired box protein Pax-8 = Paired box protein Pax-8 (Homo sapiens, UniProt Q06710); test: PAX8 transcriptional activity inhibition in RMG-I – RMG-I cells, luciferase, cherry-pick, dose response (AID 687027); assay type: functional, cell-based;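 also: luciferase reporter driven by Pax8 target thyroperoxidase promoter measured by SteadyGlo luminescence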
Sequence of Paired box protein Pax-8 (Q06710 whole entry): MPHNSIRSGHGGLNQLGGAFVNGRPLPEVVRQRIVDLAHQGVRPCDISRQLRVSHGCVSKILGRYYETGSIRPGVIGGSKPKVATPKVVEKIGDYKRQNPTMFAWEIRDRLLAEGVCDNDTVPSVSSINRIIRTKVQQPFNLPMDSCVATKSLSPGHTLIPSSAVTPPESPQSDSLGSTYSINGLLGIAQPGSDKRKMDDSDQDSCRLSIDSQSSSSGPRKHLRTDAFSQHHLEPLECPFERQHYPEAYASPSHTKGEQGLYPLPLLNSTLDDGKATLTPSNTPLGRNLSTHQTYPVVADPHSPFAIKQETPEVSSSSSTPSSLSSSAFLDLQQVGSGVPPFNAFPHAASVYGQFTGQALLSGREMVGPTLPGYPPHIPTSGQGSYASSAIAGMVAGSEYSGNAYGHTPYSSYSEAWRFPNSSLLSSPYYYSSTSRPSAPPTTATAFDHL

[20] = blockade of melanocortin 4 receptor signaling – cell-based, plate reader, cherry pick, counter-screen for LGR2 antagonist project, dose response (AID 743444); assay type: functional;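 also: transfected HEK 293 cells stimulated with alpha-MSH peptide; potency of inhibitors of the alpha-MSH evoked signal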
Insulin-degrading enzyme [21] = target: T2, Insulin-degrading enzyme (Homo sapiens, UniProt P14735); test: recombinant IDE activation, cell-free – biochemical, fluorescence polarization, counter-screen for IDE activator project, dose response (AID 588681)
T2 sequence (P14735 whole entry): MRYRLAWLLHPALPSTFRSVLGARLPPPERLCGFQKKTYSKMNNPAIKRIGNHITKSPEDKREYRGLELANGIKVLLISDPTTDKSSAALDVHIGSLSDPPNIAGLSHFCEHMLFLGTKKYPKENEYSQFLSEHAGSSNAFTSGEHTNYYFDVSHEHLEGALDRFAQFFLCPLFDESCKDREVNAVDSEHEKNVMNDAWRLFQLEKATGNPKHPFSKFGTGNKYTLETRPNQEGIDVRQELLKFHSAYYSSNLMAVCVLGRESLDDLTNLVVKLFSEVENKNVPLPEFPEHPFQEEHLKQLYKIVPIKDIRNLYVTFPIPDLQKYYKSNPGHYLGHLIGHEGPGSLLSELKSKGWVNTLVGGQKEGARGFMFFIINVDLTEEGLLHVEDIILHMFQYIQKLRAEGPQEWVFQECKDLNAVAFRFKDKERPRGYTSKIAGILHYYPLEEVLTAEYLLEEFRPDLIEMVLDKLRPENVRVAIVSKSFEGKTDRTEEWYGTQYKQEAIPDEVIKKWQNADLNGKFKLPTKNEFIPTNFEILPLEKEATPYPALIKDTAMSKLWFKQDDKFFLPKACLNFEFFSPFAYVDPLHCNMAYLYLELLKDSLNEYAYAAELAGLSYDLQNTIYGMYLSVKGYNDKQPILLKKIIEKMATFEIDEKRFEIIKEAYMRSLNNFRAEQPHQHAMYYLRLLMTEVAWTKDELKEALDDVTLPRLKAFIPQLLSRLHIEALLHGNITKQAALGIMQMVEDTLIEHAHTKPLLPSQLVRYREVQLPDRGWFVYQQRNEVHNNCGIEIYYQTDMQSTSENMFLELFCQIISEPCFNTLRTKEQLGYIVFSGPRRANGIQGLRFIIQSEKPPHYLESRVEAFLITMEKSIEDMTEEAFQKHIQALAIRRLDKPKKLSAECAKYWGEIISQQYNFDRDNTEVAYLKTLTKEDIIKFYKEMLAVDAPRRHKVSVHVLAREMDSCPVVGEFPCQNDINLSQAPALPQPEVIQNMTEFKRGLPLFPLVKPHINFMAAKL

BJ [22] = test: growth inhibition of engineered Ras-driven BJ cells – cell-based, alamar blue fluorescence, cherrypicked samples, dose response (AID 2631); assay type: functional; settings: Homo sapiens;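 also: confirmatory dose-response assay in RAS-dependent BJ fibroblasts engineered with TERT, LT and ST, with cytotoxicity read by fluorescence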
Insulin-degrading enzyme [23] = target: T2, Insulin-degrading enzyme; test: cellular IDE activation of Abeta substrate cleavage – fluorescence polarization, HEK cells, dose response (AID 588439); assay type: functional, cell-based

CNC[C@@H](CC1CCCCC1)NC[C@H](CC(C)C)NCCc1cccc(C(F)(F)F)c1
inactive: IC50 [14] 29 µM | EC50 (HEK293 [16]) > 54.7 µM | IC50 [19] > 20 µM | EC50 (Insulin-degrading enzyme [21]) > 54.7 µM
> 120 µM (not active): EC50 [2]
inconclusive: EC50 [1] 7.53 µM | EC50 (BJ [15]) 2.66 µM | EC50 (BJ [18]) 7.22 µM | EC50 (BJ [22]) 1.86 µM
> 38 µM (not active): EC50 [11]
active: AC50 (INS1) 3.59 µM | EC50 [3] 4.69 µM | EC50 [4] 7.84 µM | AC50 [5] 7.81 µM | IC50 (HEK293 [6]) 6.35 µM | EC50 (BJ [7]) 2.08 µM | EC50 [8] 2.79 µM | EC50 (Streptococcus) 9.26 µM | AC50 [9] 3.24 µM | AC50 [10] 4.66 µM | AC50 [12] 14.6 µM | AC50 [13] 3.86 µM | EC50 [17] 8.87 µM | AC50 (Paired box protein Pax-8) 9.93 µM | AC50 [20] 22.5 µM | EC50 (Insulin-degrading enzyme [23]) 6.62 µM
